In brackets after ≈: the same amount, converted by molar mass. Read-outs that look alike come from different tables or passages of the source.
Tests used:
[1] = system: K. pneumoniae NVT1001 and its ΔompK35/36 and/or ΔramR mutants; experiment: Etest MIC, OmpK35/36 loss and AcrAB-TolC overexpression (ΔramR) strains (Table 6); assay type: cell-based, Klebsiella pneumoniae; details: Klebsiella pneumoniae
How it was run: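 MICs were read by Etest strip following the manufacturer's instructions, and values falling between standard two-fold dilutions were rounded up to the next two-fold step. Ceftazidime and cefotaxime were also tested by CLSI broth microdilution and interpreted against CLSI 2017 breakpoints; cephalothin used CLSI 2015 and moxifloxacin EUCAST 2017.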

[2] = system: K. pneumoniae NVT1001 strains with carbapenemase plasmids; experiment: Etest MIC of β-lactams, OmpK35/36 loss, ΔramR and/or carbapenemase (Table 9); assay type: cell-based, Klebsiella pneumoniae; details: for MIC: Klebsiella pneumoniae
Description: DNA fragments of the resistance genes along with their flanking regions were amplified from clinical plasmids via PCR with specific primer pairs. The resulting PCR fragments were digested and then cloned into the plasmid pACYC177 or pACYC184. The resulting plasmids were then transformed into K. pneumoniae strain NVT1001 via electroporation. The recombinant bacteria were plated onto LB agar plates containing kanamycin (50 mg/L) or chloramphenicol (50 mg/L), and the presence of the cloned gene was confirmed via PCR and DNA sequencing.
The MICs of antibiotics were determined using the Etest (Biodisk AB, Sweden) according to the manufacturer's instructions. The MICs from the Etest, which fall between standard two-fold dilutions, were rounded up to the next highest two-fold value. The MICs of ceftazidime and cefotaxime against K. pneumoniae NVT1001 harbouring the pACYC177 plasmid with blaOXA-48 were further determined using a broth microdilution test according to the recommendations of the CLSI,^25 and the results were interpreted according to the breakpoints established by the CLSI in 2017.^25 Meanwhile, due to the lack of CLSI breakpoints in 2016 and 2017, the results for cephalothin were interpreted according to the breakpoints established by the CLSI in 2015,^26 and the results for moxifloxacin were interpreted according to the breakpoints established by the EUCAST in 2017.^27

[3] = system: K. pneumoniae NVT1001 ΔramRΔompK35/36 mutant and its revertants; experiment: Etest MIC, ΔramRΔompK35/36 mutant and its revertants (Table 7); assay type: cell-based; details: Klebsiella pneumoniae

C[C@H]1[C@H](NC(=O)/C(=N\OC(C)(C)C(=O)O)c2csc(N)n2)C(=O)N1S(=O)(=O)O [Aztreonam]
MIC ([1]; WT, NVT1001, read-out: MIC): 0.03 µg/mL (≈ 0.0689 µM)
MIC ([1]; Δ35, ΔompK35 mutant): 0.25 µg/mL (≈ 0.574 µM)
MIC ([1]; Δ35/36, ΔompK35/36 mutant): 0.5 µg/mL (≈ 1.15 µM)
MIC ([1]; Δ36, ΔompK36 mutant): 0.06 µg/mL (≈ 0.138 µM)
MIC ([1]; ΔramR mutant): 0.5 µg/mL (≈ 1.15 µM)
MIC ([1]; ΔramRΔ35, ΔramRΔompK35 mutant): 0.5 µg/mL (≈ 1.15 µM)
MIC ([1]; ΔramRΔ35/36, ΔramRΔompK35/36 mutant): 1 µg/mL (≈ 2.3 µM)
MIC ([1]; ΔramRΔ36, ΔramRΔompK36 mutant): 1 µg/mL (≈ 2.3 µM)
susceptibility category ([2]; IMP-8, NDM-1, VIM-1 and OXA-48 strains, with or without OmpK35/36 loss and/or ΔramR): susceptible
MIC ([2]; IMP-8 on pACYC177, WT (NVT1001), read-out: MIC): 0.06 µg/mL
MIC ([2]; IMP-8 on pACYC177, Δ35 (ΔompK35 mutant)): 0.25 µg/mL
MIC ([2]; IMP-8 on pACYC177, Δ35/36 (ΔompK35/36 mutant)): 0.5 µg/mL
MIC ([2]; IMP-8 on pACYC177, Δ36 (ΔompK36 mutant)): 0.06 µg/mL
MIC ([2]; IMP-8 on pACYC177, ΔramR mutant): 0.5 µg/mL
MIC ([2]; IMP-8 on pACYC177, ΔramRΔ35 (ΔramRΔompK35 mutant)): 0.5 µg/mL
MIC ([2]; IMP-8 on pACYC177, ΔramRΔ35/36 (ΔramRΔompK35/36 mutant)): 0.5 µg/mL
MIC ([2]; IMP-8 on pACYC177, ΔramRΔ36 (ΔramRΔompK36 mutant)): 0.5 µg/mL
MIC ([2]; KPC-2 on pACYC177, WT (NVT1001), read-out: MIC): > 256 µg/mL
MIC ([2]; KPC-2 on pACYC177, Δ35 (ΔompK35 mutant)): > 256 µg/mL
MIC ([2]; KPC-2 on pACYC177, Δ35/36 (ΔompK35/36 mutant)): > 256 µg/mL
MIC ([2]; KPC-2 on pACYC177, Δ36 (ΔompK36 mutant)): 256 µg/mL
MIC ([2]; KPC-2 on pACYC177, ΔramR mutant): > 256 µg/mL
MIC ([2]; KPC-2 on pACYC177, ΔramRΔ35 (ΔramRΔompK35 mutant)): > 256 µg/mL
MIC ([2]; KPC-2 on pACYC177, ΔramRΔ35/36 (ΔramRΔompK35/36 mutant)): > 256 µg/mL
MIC ([2]; KPC-2 on pACYC177, ΔramRΔ36 (ΔramRΔompK36 mutant)): > 256 µg/mL
MIC ([2]; KPC-3 on pACYC177, WT (NVT1001), read-out: MIC): > 256 µg/mL
MIC ([2]; KPC-3 on pACYC177, Δ35 (ΔompK35 mutant)): > 256 µg/mL
MIC ([2]; KPC-3 on pACYC177, Δ35/36 (ΔompK35/36 mutant)): > 256 µg/mL
MIC ([2]; KPC-3 on pACYC177, Δ36 (ΔompK36 mutant)): > 256 µg/mL
MIC ([2]; KPC-3 on pACYC177, ΔramR mutant): > 256 µg/mL
MIC ([2]; KPC-3 on pACYC177, ΔramRΔ35 (ΔramRΔompK35 mutant)): > 256 µg/mL
MIC ([2]; KPC-3 on pACYC177, ΔramRΔ35/36 (ΔramRΔompK35/36 mutant)): > 256 µg/mL
MIC ([2]; KPC-3 on pACYC177, ΔramRΔ36 (ΔramRΔompK36 mutant)): > 256 µg/mL
MIC ([2]; NDM-1 on pACYC177, WT (NVT1001), read-out: MIC): 0.06 µg/mL
MIC ([2]; NDM-1 on pACYC177, Δ35 (ΔompK35 mutant)): 0.25 µg/mL
MIC ([2]; NDM-1 on pACYC177, Δ35/36 (ΔompK35/36 mutant)): 0.5 µg/mL
MIC ([2]; NDM-1 on pACYC177, Δ36 (ΔompK36 mutant)): 0.06 µg/mL
MIC ([2]; NDM-1 on pACYC177, ΔramR mutant): 0.5 µg/mL
MIC ([2]; NDM-1 on pACYC177, ΔramRΔ35 (ΔramRΔompK35 mutant)): 0.5 µg/mL
MIC ([2]; NDM-1 on pACYC177, ΔramRΔ35/36 (ΔramRΔompK35/36 mutant)): 0.5 µg/mL
MIC ([2]; NDM-1 on pACYC177, ΔramRΔ36 (ΔramRΔompK36 mutant)): 0.5 µg/mL
MIC ([2]; OXA-48 on pACYC177, WT (NVT1001), read-out: MIC): 0.06 µg/mL
MIC ([2]; OXA-48 on pACYC177, Δ35 (ΔompK35 mutant)): 0.25 µg/mL
MIC ([2]; OXA-48 on pACYC177, Δ35/36 (ΔompK35/36 mutant)): 0.5 µg/mL
MIC ([2]; OXA-48 on pACYC177, Δ36 (ΔompK36 mutant)): 0.125 µg/mL
MIC ([2]; OXA-48 on pACYC177, ΔramR mutant): 0.5 µg/mL
MIC ([2]; OXA-48 on pACYC177, ΔramRΔ35 (ΔramRΔompK35 mutant)): 0.5 µg/mL
MIC ([2]; OXA-48 on pACYC177, ΔramRΔ35/36 (ΔramRΔompK35/36 mutant)): 0.5 µg/mL
MIC ([2]; OXA-48 on pACYC177, ΔramRΔ36 (ΔramRΔompK36 mutant)): 0.5 µg/mL
MIC ([2]; VIM-1 on pACYC177, WT (NVT1001), read-out: MIC): 0.06 µg/mL
MIC ([2]; VIM-1 on pACYC177, Δ35 (ΔompK35 mutant)): 0.25 µg/mL
MIC ([2]; VIM-1 on pACYC177, Δ35/36 (ΔompK35/36 mutant)): 0.5 µg/mL
MIC ([2]; VIM-1 on pACYC177, Δ36 (ΔompK36 mutant)): 0.06 µg/mL
MIC ([2]; VIM-1 on pACYC177, ΔramR mutant): 0.5 µg/mL
MIC ([2]; VIM-1 on pACYC177, ΔramRΔ35 (ΔramRΔompK35 mutant)): 0.5 µg/mL
MIC ([2]; VIM-1 on pACYC177, ΔramRΔ35/36 (ΔramRΔompK35/36 mutant)): 1 µg/mL
MIC ([2]; VIM-1 on pACYC177, ΔramRΔ36 (ΔramRΔompK36 mutant)): 1 µg/mL
MIC ([2]; no supplemental plasmid, WT (NVT1001), read-out: MIC): 0.03 µg/mL
MIC ([2]; no supplemental plasmid, Δ35 (ΔompK35 mutant)): 0.25 µg/mL
MIC ([2]; no supplemental plasmid, Δ35/36 (ΔompK35/36 mutant)): 0.5 µg/mL
MIC ([2]; no supplemental plasmid, Δ36 (ΔompK36 mutant)): 0.06 µg/mL
MIC ([2]; no supplemental plasmid, ΔramR mutant): 0.5 µg/mL
MIC ([2]; no supplemental plasmid, ΔramRΔ35 (ΔramRΔompK35 mutant)): 0.5 µg/mL
MIC ([2]; no supplemental plasmid, ΔramRΔ35/36 (ΔramRΔompK35/36 mutant)): 1 µg/mL
MIC ([2]; no supplemental plasmid, ΔramRΔ36 (ΔramRΔompK36 mutant)): 1 µg/mL
MIC ([3]; ΔramRΔompK35/36::ompK35/36 revertant): 0.5 µg/mL
MIC ([3]; ΔramRΔompK35/36::ompK35 revertant): 1 µg/mL
MIC ([3]; ΔramRΔompK35/36::ompK36 revertant): 0.5 µg/mL
MIC ([3]; ΔramRΔompK35/36::ramR revertant): 0.5 µg/mL
MIC ([3]; ΔramRΔompK35/36::ramR::ompK35/36 revertant): 0.03 µg/mL
MIC ([3]; ΔramRΔompK35/36::ramR::ompK35 revertant): 0.06 µg/mL
MIC ([3]; ΔramRΔompK35/36::ramR::ompK36 revertant): 0.25 µg/mL
MIC ([3]; ΔramRΔompK35/36 mutant): 1 µg/mL
